For orientation: Ki means the dissociation constant of the complex between target and ligand, obtained from inhibition or displacement. A higher Ki goes with weaker binding.

The text below walks through data of patent US5569742A (The Salk Institute for Biological Studies, priority 1994, dated 1996).

The target of assay [1] is T1, NPY Y2 receptor (Homo sapiens, UniProt P49146).
T1 construct: Functional Y2 receptors have been identified on the cell line SK-N-BE2; endogenous in cells; host or cells: SK-N-BE(2) human neuroblastoma cells (intact, plated cells)
T1 sequence (P49146 1-381): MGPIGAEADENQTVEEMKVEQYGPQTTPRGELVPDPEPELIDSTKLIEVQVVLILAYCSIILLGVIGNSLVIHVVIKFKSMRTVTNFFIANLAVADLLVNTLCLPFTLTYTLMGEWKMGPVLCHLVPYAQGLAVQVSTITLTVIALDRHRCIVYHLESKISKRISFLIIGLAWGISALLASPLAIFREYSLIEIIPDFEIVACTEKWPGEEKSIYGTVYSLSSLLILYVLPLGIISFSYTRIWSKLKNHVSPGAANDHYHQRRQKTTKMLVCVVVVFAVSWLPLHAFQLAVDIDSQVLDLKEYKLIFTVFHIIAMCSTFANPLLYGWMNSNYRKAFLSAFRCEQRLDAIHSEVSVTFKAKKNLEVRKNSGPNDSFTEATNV
Put plainly: Receptor binding assay, displacement of [125I]PYY from SK-N-BE2 cells. Here is the method:
(§1) Receptor binding assays are performed using the human neuroblastoma SK-N-MC cells Y1 receptors) and the SK-N-BE(2) cells (Y2 receptors). Cells are grown to confluence in […], trypsinized, and plated into 24 microwells plates (10^5 cells per well). Media for SK-N-MC cells is MEM Eagles (500 mL) buffer, containing L-glutamine (10 Ml, 200 mM, penicillin/streptomycin (5 Ml.10 000 mg/mL), nonessential amino acids (5 mL, 11 mg/mL), fetal calf serum (50 mL, 10%), and 500 μL of fungiyorl. Media for SK-N-BE(2) cells is DME-F12 (500 mL) buffer, containing L-glutamine (10 mL, 200 mM), penicillin/streptomycin (5 mL, 10 000 mg/mL), fetal calf serum (50 mL, 10%), and 500 μL of fungiyorl. After 1 day for the SK-N-BE(2) and 2 days for the SK-N-MC, the cells are grown to the appropriate density and are used for binding assays
(§2) Peptides to be tested are prealiquoted at 100 μg/Ml in 100 μL of solution in MILLI-Q™ water (Millipore, U.S.A.). Solutions of peptides in different concentrations (seven doses from 10^-6 to 10^-10 M) are prepared in binding buffer (0.30M sucrose, 10 mM HEPES, 0.1% BSA, and pH is adjusted to 7.4 with NaOH).
In general terms: Loss of bound radioactivity is the signal in a displacement assay; it reports binding, not function.

Assay [2] deals with T2, NPY Y1 receptor (Homo sapiens, UniProt P25929).
T2 construct: The human SK-N-MC cell line expresses the Y1 receptor subtype; endogenous in cells; host or cells: SK-N-MC human neuroblastoma cells (intact, plated cells)
T2 sequence (P25929 1-384): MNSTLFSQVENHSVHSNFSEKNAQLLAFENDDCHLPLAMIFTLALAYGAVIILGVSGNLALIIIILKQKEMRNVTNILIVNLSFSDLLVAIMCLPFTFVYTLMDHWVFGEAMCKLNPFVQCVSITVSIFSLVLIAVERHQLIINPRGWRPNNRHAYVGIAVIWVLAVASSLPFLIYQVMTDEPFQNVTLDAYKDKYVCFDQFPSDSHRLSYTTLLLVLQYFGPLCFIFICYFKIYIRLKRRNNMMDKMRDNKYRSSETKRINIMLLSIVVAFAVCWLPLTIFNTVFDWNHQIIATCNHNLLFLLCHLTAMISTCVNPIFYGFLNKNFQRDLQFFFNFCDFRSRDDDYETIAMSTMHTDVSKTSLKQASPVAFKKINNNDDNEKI
Nature of the assay: Receptor binding assay, displacement of [125I]PYY from SK-N-MC cells. On the procedure:
as §1, §2

Positions of bridges follow the written chain, without caps; N, C: chain ends. Residues, ends and D or L forms follow the SMILES beside them. A value given as a limit tells only on which side of the number the result lay.

Take `CC[C@H](C)[C@H](NC(=O)[C@H](Cc1ccc(O)cc1)NC(=O)[C@H](Cc1c[nH]cn1)NC(=O)[C@H](CCCNC(=N)N)NC(=O)[C@H](CC(C)C)NC(=O)[C@H](C)NC(=O)[C@H](CO)NC(=O)[C@@H]1CSSC[C@H](NC(=O)[C@H](CC(=O)O)NC(=O)[C@@H]2CCCN2C(=O)[C@H](CCCCN)NC(=O)[C@H](CO)NC(=O)[C@@H]2CCCN2C(=O)[C@@H](N)Cc2ccc(O)cc2)C(=O)N2CCC[C@H]2C(=O)NCC(=O)N1)C(=O)N[C@@H](CC(N)=O)C(=O)N[C@@H](CC(C)C)C(=O)N[C@H](C(=O)N[C@H](C(=O)N[C@@H](CCCNC(=N)N)C(=O)N1CCC[C@H]1C(=O)N[C@@H](CCCNC(=N)N)C(=O)N[C@@H](Cc1ccc(O)cc1)C(N)=O)[C@@H](C)O)[C@@H](C)CC` [SEQ ID NO:8] (H-YPSKPDCPGCSALRHYINLITRPRY-NH2; disulfide 7-10): the Ki in assay [1] was greater than 1000 nM; in assay [2] it was 32 nM.
